How the values were obtained:
[1] = xn = mol fraction of the nth substance listed; conditions: 102 kPa, Liquid, x2 = 0; for viscosity: Concentric cylinders viscometry; for mass density: Vibrating tube method
[2] = 102 kPa, Liquid; for viscosity: Concentric cylinders viscometry; for speed of sound: Frequency=3 MHz, Single path-length method; for mass density: Vibrating tube method

CCCCCCCCCCCCCCCC [hexadecane] + CCCCCCCCC1CCCCC1
[1]
Conditions	mass density [kg/m3]	viscosity [mPa·s]
293.15 K	773.37	3.47
303.15 K	766.43	2.76
313.15 K	759.51	2.24
323.15 K	752.61	1.86
333.15 K	745.69	1.56
343.15 K	738.8	1.35
353.15 K	731.9	1.15
363.15 K	724.9	1.02
373.15 K	717.9	0.885

CCCCCCCCCCCCCCCC [hexadecane] + CCCCCCCCCC1CCCCC1
[1]
Conditions	mass density [kg/m3]	viscosity [mPa·s]
293.15 K	773.37	3.47
303.15 K	766.43	2.76
313.15 K	759.51	2.24
323.15 K	752.61	1.86
333.15 K	745.69	1.56
343.15 K	738.8	1.35
353.15 K	731.9	1.15
363.15 K	724.9	1.02
373.15 K	717.9	0.885

CCCCCCCCCCCCCCCC [hexadecane] + CCCCCCCCCCC1CCCCC1
[1]
Conditions	mass density [kg/m3]	viscosity [mPa·s]
293.15 K	773.37	3.47
303.15 K	766.43	2.76
313.15 K	759.51	2.24
323.15 K	752.61	1.86
333.15 K	745.69	1.56
343.15 K	738.8	1.35
353.15 K	731.9	1.15
363.15 K	724.9	1.02
373.15 K	717.9	0.885

CCCCCCCCCCCCCCCC [hexadecane] + CCCCCCCCCCCCC1CCCCC1
[1]
Conditions	mass density [kg/m3]	viscosity [mPa·s]
293.15 K	773.37	3.47
303.15 K	766.43	2.76
313.15 K	759.51	2.24
323.15 K	752.61	1.86
333.15 K	745.69	1.56
343.15 K	738.8	1.35
353.15 K	731.9	1.15
363.15 K	724.9	1.02
373.15 K	717.9	0.885

CCCCCCC1CCCCC1 [hexylcyclohexane]
[2]
Conditions	mass density [kg/m3]	speed of sound [m/s]	viscosity [mPa·s]
293.15 K	807.71	1361	2.2
303.15 K	800.56	1322.1	1.81
313.15 K	793.4	1284.2	1.51
323.15 K	786.22	1247.1	1.29
333.15 K	779.02	1211	1.09
343.15 K	771.8	–	0.964
353.15 K	764.6	–	0.847
363.15 K	757.3	–	0.758

CCCCCCCCCC1CCCCC1 [nonylcyclohexane]
[2]
Conditions	mass density [kg/m3]	speed of sound [m/s]	viscosity [mPa·s]
293.15 K	816.41	1397.2	4.34
303.15 K	809.57	1359.6	3.39
313.15 K	802.74	1322.9	2.72
323.15 K	795.8	1287.1	2.22
333.15 K	789.05	1252.2	1.85
343.15 K	782.2	–	1.57
353.15 K	775.4	–	1.35
363.15 K	768.5	–	1.2
373.15 K	761.6	–	1.03

CCCCCCCCC1CCCCC1 [octylcyclohexane]
[2]
Conditions	mass density [kg/m3]	speed of sound [m/s]	viscosity [mPa·s]
293.15 K	814.14	1387	3.52
303.15 K	807.22	1349.1	2.79
313.15 K	800.29	1312.1	2.27
323.15 K	793.36	1275.9	1.88
333.15 K	786.42	1240.5	1.58
343.15 K	779.5	–	1.36
353.15 K	772.5	–	1.16
363.15 K	765.5	–	1.04
373.15 K	758.5	–	0.899

CCCCCC1CCCCC1 [pentylcyclohexane]
[2]
Conditions	mass density [kg/m3]	speed of sound [m/s]	viscosity [mPa·s]
293.15 K	804.11	1345.9	1.7
303.15 K	796.8	1306.4	1.42
313.15 K	789.47	1267.8	1.21
323.15 K	782.12	1230.1	1.04
333.15 K	774.74	1193.4	0.895
343.15 K	767.3	–	0.799
353.15 K	759.9	–	0.709
363.15 K	752.4	–	0.637
